Data set [1] deals with Ebolavirus. The data set is described as follows: Antiviral activity against recombinant Ebola virus Mayinga expressing GFP infected in human HeLa cells with ATP6V0a2 KO assessed as reduction in viral entry into cells pretreated for 1 hr followed by viral infection measured after 24 to 48 hrs by imaging analysis. As to conditions: Orthoebolavirus. Type of data set: functional, organism-based.

Data set [2] in a line: Selectivity index, ratio of CC50 for HEK293 cells to EC50 for recombinant Ebola virus Mayinga expressing GFP infected in human HeLa cells with ATP6V0a2 KO. Type of data set: toxicity, cell-based. To be noted: read-out: Ratio CC50/EC50.
Data set [3] has as its system HEK293. The data set is described as follows: Cytotoxicity against HEK293 cells incubated for 72 hrs by MTT assay. Type of data set: toxicity, cell-based. To be noted: human, hek293, 72 h.
Data set [4] deals with Voltage-gated inwardly rectifying potassium channel KCNH2 (Homo sapiens, UniProt Q12809). The data set is described as follows: Inhibition of hERG at 10 uM relative to control. In kind it is toxicity. For orientation: The hERG channel carries a current that helps repolarise heart muscle cells.
Chain of Voltage-gated inwardly rectifying potassium channel KCNH2 (Q12809 whole entry): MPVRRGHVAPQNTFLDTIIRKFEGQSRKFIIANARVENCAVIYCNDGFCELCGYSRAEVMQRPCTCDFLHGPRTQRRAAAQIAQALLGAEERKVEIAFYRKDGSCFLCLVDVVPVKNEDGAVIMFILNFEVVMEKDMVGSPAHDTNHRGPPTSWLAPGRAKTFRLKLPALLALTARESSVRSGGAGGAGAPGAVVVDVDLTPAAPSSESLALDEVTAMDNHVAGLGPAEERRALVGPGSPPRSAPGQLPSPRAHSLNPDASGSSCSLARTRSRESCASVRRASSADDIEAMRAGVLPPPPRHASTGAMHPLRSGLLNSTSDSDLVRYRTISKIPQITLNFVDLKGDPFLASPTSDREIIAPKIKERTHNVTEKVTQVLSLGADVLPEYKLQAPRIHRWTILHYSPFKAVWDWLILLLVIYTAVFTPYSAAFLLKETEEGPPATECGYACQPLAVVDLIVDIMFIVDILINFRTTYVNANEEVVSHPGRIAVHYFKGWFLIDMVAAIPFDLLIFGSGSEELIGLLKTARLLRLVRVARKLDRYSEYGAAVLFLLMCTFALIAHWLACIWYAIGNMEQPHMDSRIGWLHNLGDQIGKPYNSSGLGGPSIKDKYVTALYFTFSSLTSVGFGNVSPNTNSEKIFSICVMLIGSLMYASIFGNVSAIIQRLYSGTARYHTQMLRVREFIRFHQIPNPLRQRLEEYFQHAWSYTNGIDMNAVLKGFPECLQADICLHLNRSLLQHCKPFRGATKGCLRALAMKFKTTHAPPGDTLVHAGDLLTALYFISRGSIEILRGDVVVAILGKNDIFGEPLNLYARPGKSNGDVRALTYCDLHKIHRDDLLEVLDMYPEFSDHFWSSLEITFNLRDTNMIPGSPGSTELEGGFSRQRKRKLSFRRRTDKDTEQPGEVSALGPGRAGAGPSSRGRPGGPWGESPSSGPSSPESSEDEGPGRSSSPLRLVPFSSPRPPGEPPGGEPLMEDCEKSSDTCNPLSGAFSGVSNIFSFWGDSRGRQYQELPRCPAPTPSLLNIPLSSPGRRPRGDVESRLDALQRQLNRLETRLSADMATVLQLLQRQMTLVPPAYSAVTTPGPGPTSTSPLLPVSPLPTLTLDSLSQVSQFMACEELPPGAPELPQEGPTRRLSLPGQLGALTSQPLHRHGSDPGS
For data set [5], the system named is Ebolavirus. The data set is described as follows: Antiviral activity against recombinant Ebola virus Mayinga expressing GFP infected in human primary macrophages assessed as reduction in infectivity pretreated for 1 hr followed by viral infection measured after 24 to 48 hrs by imaging analysis. Type of data set: functional, organism-based. As to conditions: Orthoebolavirus, Primary macrophage.

Data set [6] can be described thus: Selectivity index, ratio of CC50 for human primary macrophages to EC50 for recombinant Ebola virus Mayinga expressing GFP infected in human primary macrophages. In kind it is toxicity. To be noted: read-out: Ratio CC50/EC50.

Bounds are passed on as bounds.

As a reminder, the EC50 is the midpoint of the concentration-response curve. What is called CC50 is the concentration that lowers cell viability or growth by half. Higher therefore signals lower toxicity to the cells. As for `COc1cc2c(OCCCN3CCN(C(C)=O)CC3)c3c(c(-c4ccc5c(c4)OCO5)c2cc1OC)C(=O)OC3`, the EC50 in data set [1] is 42 nM. The selectivity ratio in data set [2] is above 590. In addition, in data set [3], the CC50 is above 80000 nM. Further, the “inhibition (INH)” value in data set [4] is 11%.
As to `COc1cc2c(OCC(O)CN3CCN(C)CC3)c3c(c(-c4ccc5c(c4)OCO5)c2cc1OC)C(=O)OC3` (stereo not drawn), the EC50 in data set [1] is 54 nM; in data set [5], 33 nM. Further, the values for the selectivity ratio in data set [2] and in data set [6] were above 420 and above 753, respectively. The molecule also registered a CC50 in data set [3] above 80000 nM. Also, the “inhibition (INH)” value in data set [4] was 36%.
Regarding `COc1cc2c(OC3CNC3)c3c(c(-c4ccc5c(c4)OCO5)c2cc1OC)C(=O)OC3`, in data set [1], the EC50 was determined as 214 nM. For the same molecule, in data set [2], the selectivity ratio is above 150. The CC50 in data set [3] was above 80000 nM. In addition, the “inhibition (INH)” value in data set [4] is given as 89%.
For `COc1cc2c(OC3CCOCC3)c3c(c(-c4ccc5c(c4)OCO5)c2cc1OC)C(=O)OC3` the same measures were 124 nM, 43, above 80000 nM and 36%.
As for `COCCN1CCN(CC(O)COc2c3c(c(-c4ccc5c(c4)OCO5)c4cc(OC)c(OC)cc24)C(=O)OC3)CC1` (stereo not drawn), the EC50 in data set [1] amounted to 44 nM. Also, the selectivity ratio in data set [2] was above 580. Besides, the “inhibition (INH)” value in data set [4] was 51%.
As to `COc1cc2c(OCC(O)CN3CCOCC3)c3c(c(-c4ccc5c(c4)OCO5)c2cc1OC)C(=O)OC3` (stereo not drawn), the EC50 in data set [1] came to 157 nM. In addition, the selectivity ratio in data set [2] was above 160. This molecule came in with a CC50 in data set [3] above 80000 nM. Also, in data set [4], the “inhibition (INH)” value turned out to be 16%.
For `COc1cc2c(OCCCN3[C@@H]4CC[C@H]3COC4)c3c(c(-c4ccc5c(c4)OCO5)c2cc1OC)C(=O)OC3` the same measures were 143 nM, above 190, above 80000 nM and 76%.
`COc1cc2c(OC3CCNC3)c3c(c(-c4ccc5c(c4)OCO5)c2cc1OC)C(=O)OC3` (stereo not drawn): the EC50 in data set [1] was found to be 86 nM. In data set [2], the selectivity ratio turned out to be 300. For the same molecule, the CC50 in data set [3] was above 80000 nM. In addition, the “inhibition (INH)” value in data set [4] is 97%.
As to `COc1cc2c(OCCCN3CCOCC3)c3c(c(-c4ccc5c(c4)OCO5)c2cc1OC)C(=O)OC3`, the EC50 in data set [1] stood at 95 nM. Also, the selectivity ratio in data set [2] was above 230. The molecule further displayed a CC50 in data set [3] above 80000 nM. In data set [4], the “inhibition (INH)” value was determined as 11%.
For `COc1cc2c(OCC#N)c3c(c(-c4ccc5c(c4)OCO5)c2cc1OC)C(=O)OC3` the same measures were 182 nM, above 140, above 80000 nM and 6%.
Consider `COc1cc2c(OCCCN3CCN(C)CC3)c3c(c(-c4ccc5c(c4)OCO5)c2cc1OC)C(=O)OC3`, for which, in data set [1], the EC50 worked out at 7 nM. Also, the selectivity ratio in data set [2] was above 630. The molecule further showed a CC50 in data set [3] of 12000 nM. In data set [4], the “inhibition (INH)” value was determined as 75%.
Turning to `COc1cc2c(OCCCN3CC4CCC(C3)O4)c3c(c(-c4ccc5c(c4)OCO5)c2cc1OC)C(=O)OC3`, the EC50 in data set [1] stood at 127 nM. Further, the selectivity ratio in data set [2] was above 190. Moreover, the CC50 in data set [3] is above 80000 nM. For the same molecule, the “inhibition (INH)” value in data set [4] turned out to be 22%.
Regarding `COc1cc2c(OCCCN3CC4CCC(C3)N4C)c3c(c(-c4ccc5c(c4)OCO5)c2cc1OC)C(=O)OC3`, the EC50 in data set [1] and in data set [5] was 10 nM in each case. The selectivity ratio is above 3400 in data set [2] and 577 in data set [6]. This molecule also came in with a CC50 in data set [3] above 80000 nM. In data set [4], the “inhibition (INH)” value stood at 100%.
As to `COc1cc2c(OCCCN3[C@@H]4CC[C@H]3CN(C)C4)c3c(c(-c4ccc5c(c4)OCO5)c2cc1OC)C(=O)OC3`, the EC50 in data set [1] amounted to 18 nM; in data set [5], 25 nM. For the same molecule, the selectivity ratio in data set [2] was above 940; in data set [6], 313. Moreover, in data set [3], the CC50 was 71000 nM. For the same molecule, the “inhibition (INH)” value in data set [4] stood at 72%.
As to `COc1cc2c(OCC(O)CN3CC4CCC(C3)N4C)c3c(c(-c4ccc5c(c4)OCO5)c2cc1OC)C(=O)OC3` (stereo not drawn), in data set [1], the EC50 is 7 nM. Also, the selectivity ratio in data set [2] was 2000. This molecule came in with a CC50 in data set [3] above 80000 nM. Also, the “inhibition (INH)” value in data set [4] stood at 99%.
Regarding `COc1cc2c(OCCN3CCOCC3)c3c(c(-c4ccc5c(c4)OCO5)c2cc1OC)C(=O)OC3`, the EC50 in data set [1] amounted to 651 nM. Moreover, the selectivity ratio in data set [2] is above 38. For the same molecule, the CC50 in data set [3] is above 80000 nM.
Consider `COc1cc2c(OCCCN3CCN(C=O)CC3)c3c(c(-c4ccc5c(c4)OCO5)c2cc1OC)C(=O)OC3`, for which the EC50 in data set [1] amounted to 31 nM. Further, the selectivity ratio in data set [2] is above 610. Also, the CC50 in data set [3] was above 80000 nM. For the same molecule, the “inhibition (INH)” value in data set [4] is listed as 34%.
Regarding `COc1cc2c(OCCCN3CC4CC3CO4)c3c(c(-c4ccc5c(c4)OCO5)c2cc1OC)C(=O)OC3` (stereo not drawn), the EC50 in data set [1] worked out at 48 nM. Also, in data set [2], the selectivity ratio is above 660. Moreover, in data set [3], half-maximal cytotoxicity (CC50) was put at 52000 nM. For the same molecule, the “inhibition (INH)” value in data set [4] is 73%.
With `COc1cc2c(OC3COC3)c3c(c(-c4ccc5c(c4)OCO5)c2cc1OC)C(=O)OC3`, in data set [1], the EC50 worked out at 318 nM. For the same molecule, the selectivity ratio in data set [2] is above 79. The same molecule yielded a CC50 in data set [3] of 72000 nM. The “inhibition (INH)” value in data set [4] is 15%.
Consider `COc1cc2c(OCCCN3CC4CCC3CN4C)c3c(c(-c4ccc5c(c4)OCO5)c2cc1OC)C(=O)OC3` (stereo not drawn), for which the EC50 came out at 26 nM in data set [1] and 2 nM in data set [5]. The values for the selectivity ratio in data set [2] and in data set [6] were above 1020 and 3240, respectively. The molecule also displayed a CC50 in data set [3] of 54000 nM. Further, the “inhibition (INH)” value in data set [4] came to 90%.
In the case of `COc1cc2c(OCCCN3CC4CC3CN4C)c3c(c(-c4ccc5c(c4)OCO5)c2cc1OC)C(=O)OC3` (stereo not drawn), in data set [1], the EC50 was 116 nM. The selectivity ratio in data set [2] was above 210. In data set [3], this molecule returned a CC50 above 80000 nM. The “inhibition (INH)” value in data set [4] is 72%.
With `CO/C1=C\C(C)=C\[C@@H](C)[C@@H](O)[C@@H](C)C/C(C)=C/C=C/[C@H](OC)[C@@H]([C@@H](C)[C@@H](O)[C@H](C)[C@@]2(O)C[C@@H](O)[C@H](C)[C@@H](C(C)C)O2)OC1=O` [BAFILOMYCIN A1], in data set [1], the EC50 worked out at 3 nM. Moreover, the selectivity ratio in data set [2] is 470. This molecule gave a CC50 in data set [3] of 37000 nM.
Consider `COc1cc2c(OCCCN3CCNC(=O)C3)c3c(c(-c4ccc5c(c4)OCO5)c2cc1OC)C(=O)OC3`, for which the EC50 in data set [1] worked out at 441 nM. Besides, in data set [3], the CC50 was above 80000 nM. Moreover, the “inhibition (INH)” value in data set [4] came out at 5%.
For `COC(=O)N1CCN(CCCOc2c3c(c(-c4ccc5c(c4)OCO5)c4cc(OC)c(OC)cc24)C(=O)OC3)CC1`, the EC50 in data set [1] amounted to 22 nM. For the same molecule, the selectivity ratio in data set [2] was above 110. The CC50 in data set [3] is above 80000 nM. Further, the “inhibition (INH)” value in data set [4] was 30%.
For `COc1cc2c(OCCCN3CCN(S(C)(=O)=O)CC3)c3c(c(-c4ccc5c(c4)OCO5)c2cc1OC)C(=O)OC3` the same measures were 35 nM, above 550, above 80000 nM and 16%.
For `COC(=O)N1CCN(CC(O)COc2c3c(c(-c4ccc5c(c4)OCO5)c4cc(OC)c(OC)cc24)C(=O)OC3)CC1` (stereo not drawn) the same measures were 41 nM, above 740, above 80000 nM and 23%.

The values above are taken from ChEMBL document CHEMBL5584240, “Evaluation of potency and metabolic stability of diphyllin-derived Vacuolar-ATPase inhibitors” (Eur J Med Chem, 2024).
